Source: patent US5023269A, “3-aryloxy-3-substituted propanamines” (Eli Lilly and Company, priority 1990, dated 1991)
Structures can show the parent of a compound that is named as a salt.

Tests used:
[1] = system: norepinephrine (NE) uptake; test: Inhibition of norepinephrine uptake in vitro: synaptosomal uptake of 14C-l-norepinephrine in rat cortical synaptosomes; assay type: biochemical, rat (male Sprague-Dawley); settings: 100 nM 14C-NE, 37° C., 5 min
Method: (§1) This general procedure is set forth by Wong et al., in Drug Development Research 6:397-403 (1985).
(§2) Male Sprague-Dawley rats (110-150 g) from Harlan Industries (Cumberland, IN) were fed a Purina Chow ad libitum for at least 3 days before being used in the studies. Rats were killed by decapitation. Whole brains were removed and dissected. Cerebral cortex was homogenized in 9 volumes of a medium containing 0.32 M sucrose and 10 mM glucose. Crude synaptosomal preparations were isolated after differential centrifugation at 1,000 g for 10 min. and 17,000 g for 28 min. The final pellets were suspended in the same medium and kept in ice until use within the same day.
(§3) Synaptosomal uptake of ^3 H-serotonin(^3 H-5hydroxytryptamine, ^3 H-5HT) and ^14 C-l-norepinephrine (^14 C-NE) was determined as follows. Cortical synaptosomes (equivalent to 1 mg of protein) were incubated at 37° C. for 5 min in 1 ml of Krebs-bicarbonate medium containing also 10 mM glucose, 0.1 mM iproniazid, 1 mM ascorbic acid, 0.17 mM EDTA, 50 nM ^3 H-5HT and 100 nM ^14 C-NE The reaction mixture was immediately diluted with 2 ml of ice-chilled Krebs-bicarbonate buffer and filtered under vacuum with a cell harvester (Brandel, Gaithersburg, MD). Filters were rinsed twice with approximately 5 ml of ice-chilled 0.9% saline and were transferred to a counting vial containing 10 ml of scintillation fluid (PCS, Amersham, Arlington Heights, IL). Radioactivity was measured by a liquid scintillation spectrophotometer. Accumulation of ^3 H-5HT and ^14 C-NE at 4° C. represented the background and was subtracted from all samples.

[2] = system: serotonin (5HT) uptake; test: Inhibition of 5HT uptake in vitro: synaptosomal uptake of 3H-serotonin in rat cortical synaptosomes; assay type: biochemical, rat (male Sprague-Dawley); settings: 50 nM 3H-5HT, 37° C., 5 min
Method: as §1, §2, §3

Row | IC50 [2] | IC50 [1] | Compound | percent inhibition at 1000 nM, NE (number in parentheses) [1] | also measured
1 | 25 nM | 630 nM | CN(C)CCC(Oc1cccc2ccccc12)c1ccsc1 (stereo not drawn) [Example 8, N,N-Dimethyl-3-(1-naphthalenyloxy)-3-(3-thienyl)propanamine oxalate] | – | –
2 | 13 nM | 600 nM | CN(C)CCC(Oc1cccc2ccccc12)c1cccs1 (stereo not drawn) [Example 1, N,N-Dimethyl-3-(1-naphthalenyloxy)-3-(2-thienyl)propanamine oxalate] | – | –
3 | 36 nM | – | CN(C)CCC(Oc1ccc(Cl)c2ccccc12)c1cccs1 (stereo not drawn) [Example 10, N,N-Dimethyl-3-(4-chloro-1-naphthalenyloxy)-3-(2-thienyl)propanamine oxalate] | 31% | –
4 | 11 nM | 30 nM | CN(C)CCC(Oc1cccc2ccccc12)c1ccco1 (stereo not drawn) [Example 30, N,N-Dimethyl-3-(1-naphthalenyloxy)-3-(2furanyl)propanamine oxalate] | – | –
5 | 58 nM | – | Cc1ccc(OC(CCN(C)C)c2cccs2)c2ccccc12 (stereo not drawn) [Example 12, N,N-Dimethyl-3-(4-methyl-1-naphthalenyloxy)-3-(2-thienyl)propanamine oxalate] | 40% | –
6 | 50 nM | 510 nM | CN(C)CCC(Oc1cccc2ccccc12)c1nccs1 (stereo not drawn) [Example 32, N,N-Dimethyl-3-(1-naphthalenyloxy)-3-(2thiazolyl)propanamine oxalate] | – | –
7 | 114 nM | – | CN(C)CCC(Oc1ccc(C(F)(F)F)c2ccccc12)c1cccs1 (stereo not drawn) [Example 6, N,N-Dimethyl-3-[4-(trifluoromethyl)-1naphthalenyloxy]-3-(2-thienyl)propanamine oxalate] | 9% | –
8 | 62 nM | 725 nM | CN(C)CCC(Oc1cccc2ccccc12)c1ccc(Cl)s1 (stereo not drawn) [Example 5, N,N-Dimethyl-3-(1-naphthalenyloxy)-3-(5-chloro-2-thienyl)propanamine oxalate] | – | –
9 | 76 nM | – | Cc1ccsc1C(CCN(C)C)Oc1cccc2ccccc12 (stereo not drawn) [Example 4, N,N-Dimethyl-3-(1-naphthalenyloxy)-3-(3-methyl-2-thienyl)propanamine oxalate] | 41% | –
10 | 55 nM | 720 nM | Cc1ccc(C(CCN(C)C)Oc2cccc3ccccc23)s1 (stereo not drawn) [Example 3, N,N-Dimethyl-3-(1-naphthalenyloxy)-3-(5-methyl-2-thienyl)propanamine oxalate] | – | –
11 | 315 nM | 315 nM | CN(C)CCC(Oc1cccc2ccccc12)c1cccnc1 (stereo not drawn) [Example 37, N,N-Dimethyl-3-(1-naphthalenyloxy)-3-(3-pyridyl)propanamine oxalate] | – | –

The next lines start with the molecule.

Row | Compound | IC50 [2] | IC50 [1] | percent inhibition at 1000 nM, NE (number in parentheses) [1] | also measured
12 | CN(C)CCC(Oc1cccc2ccccc12)C1CCCCC1 (stereo not drawn) [Example 33, N,N-Dimethyl-3-(1-naphthalenyloxy)-3-(cyclohexyl)propanamine oxalate] | 210 nM | – | 47% | –
13 | CN(C)CCC(Oc1ccc(C(F)(F)F)cc1)c1ccco1 (stereo not drawn) [Example 21, N,N-Dimethyl-3-[4-(trifluoromethyl)phenoxy]-3-(2-furanyl)propanamine] | 140 nM | – | 14% | –
15 | COc1ccc(OC(CCN(C)C)c2cccs2)cc1 (stereo not drawn) [Example 29, N,N-Dimethyl-3-(4-methoxyphenoxy)-3-(2thienyl)propanamine oxalate] | 410 nM | – | 18% | –
16 | CNCCC(Oc1ccc(Cl)cc1)c1cccs1 (stereo not drawn) [Example 27, N-Methyl-3-(4-chlorophenoxy)-3-(2-thienyl)propanamine oxalate] | 91 nM | 59 nM | – | –
17 | CNCCC(Oc1cccc2ccccc12)C1CCCCC1 (stereo not drawn) [Example 15, N-Methyl-3-(1-naphthalenyloxy)-3-cyclohexylpropanamine oxalate] | 125 nM | 90 nM | – | –
18 | CN(C)CCC(Oc1ccc(C(F)(F)F)cc1)C1CCCCC1 (stereo not drawn) [Example 35, N,N-Dimethyl-3-[4-(trifluoromethyl)phenoxy]-3-(cyclohexyl)propanamine oxalate] | 260 nM | – | 21% | –
19 | CNCCC(Oc1ccc(C)cc1)c1cccs1 (stereo not drawn) [Example 26, N-Methyl-3-(4-methylphenoxy)-3-(2-thienyl)propanamine oxalate] | 112 nM | 22 nM | – | –
20 | CNCCC(Oc1ccc(C(F)(F)F)c2ccccc12)c1cccs1 (stereo not drawn) [Example 7, N-Methyl-3-[4-(trifluoromethyl)-1-naphthalenyloxy]-3-(2-thienyl)propanamineoxalate] | 95 nM | – | 46% | –
21 | CNCCC(Oc1ccc(C(F)(F)F)cc1)c1ccsc1 (stereo not drawn) [Example 22, N-Methyl-3-[4-(trifluoromethyl)phenoxy]-3-(3-thienyl)propanamine oxalate] | 100 nM | – | 36% | –
22 | CNCCC(Oc1ccc(C(F)(F)F)cc1)C1CCCCC1 (stereo not drawn) [Example 34, N-Methyl-3-[4-(trifluoromethyl)phenoxy]-3(cyclohexyl)propanamine oxalate] | 79 nM | 285 nM | – | –
23 | CNCCC(Oc1ccc(Cl)c2ccccc12)c1cccs1 (stereo not drawn) [Example 11, N-Methyl-3-(4-chloro-1-naphthalenyloxy)-3-(2-thienyl)propanamine oxalate] | 49 nM | 77 nM | – | –
24 | CNCCC(Oc1ccc(C(F)(F)F)cc1)c1ccco1 (stereo not drawn) [Example 23, N-Methyl-3-[4-(trifluoromethyl)phenoxy]-3-(2-furanyl)propanamine oxalate] | 54 nM | 1100 nM | – | –
25 | CNCCC(Oc1cccc2ccccc12)c1cccs1 (single isomer, unassigned; (-)) [Example 39, (-)-N-methyl-3-(1-naphthalenyloxy)-3-(2-thienyl)propanamine oxalate] | – | – | – | IC50 ([1]; oxalate): 34 nM; IC50 ([2]; oxalate): […]
26 | CNCCC(Oc1cccc2ccccc12)c1ccsc1 (stereo not drawn) [Example 9, N-Methyl-3-(1-naphthalenyloxy)-3-(3-thienyl)propanamine oxalate] | 18 nM | 69 nM | – | –
27 | CN(C)CCC(Oc1ccc(C(F)(F)F)cc1)c1ccco1 (stereo not drawn) [Example 17, N,N-Dimethyl-3-[4-(trifluoromethyl)phenoxy]-3-(2-furanyl)propanamine oxalate] | – | – | – | percent inhibition at 1000 nM, NE (number in parentheses) ([1]; oxalate): 5%; IC50 ([2]; oxalate): 210 nM
28 | CNCCC(Oc1ccc(C(F)(F)F)cc1)c1cccs1 (stereo not drawn) [Example 20, N-Methyl-3-[4-(trifluoromethyl)phenoxy-3-(2-thienyl)propanamine oxalate] | 46 nM | – | 52% | –
29 | Cc1ccc(OC(CCN(C)C)c2cccs2)cc1 (stereo not drawn) [Example 24, N,N-Dimethyl-3-(4-methylphenoxy)-3-(2-thienyl)propanamine oxalate] | 125 nM | 430 nM | – | –
30 | CNCCC(Oc1cccc2ccccc12)c1nccs1 (stereo not drawn) [Example 16, N-Methyl-3-(1-naphthalenyloxy)-3-(2-thiazolyl)propanamine oxalate] | 70 nM | 205 nM | – | –
31 | CN(C)CCC(Oc1ccc(C(F)(F)F)cc1)c1ccsc1 (stereo not drawn) [Example 19, N,N-Dimethyl-3-[4-(trifluoromethyl)phenoxy]-3-(3-thienyl)propanamine oxalate] | 125 nM | – | 17% | –
32 | CNCCC(Oc1ccc(OC)cc1)c1cccs1 (stereo not drawn) [Example 28, N-Methyl-3-(4-methoxyphenoxy)-3-(2-thienyl)propanamine oxalate] | 50 nM | 260 nM | – | –
33 | CN(C)CCC(Oc1ccc(Cl)cc1)c1cccs1 (stereo not drawn) [Example 25, N,N-Dimethyl-3-(4-chlorophenoxy)-3-(2-thienyl)propanamine oxalate] | 170 nM | 820 nM | – | –
34 | CNCCC(Oc1cccc2ccccc12)c1ccco1 (stereo not drawn) [Example 31, N-Methyl-3-(1-naphthalenyloxy)-3-(2-furanyl)propanamine oxalate] | 20 nM | 22.7 nM | – | –
35 | CN(C)CCC(Oc1ccc(C(F)(F)F)cc1)c1cccs1 (stereo not drawn) [Example 18, N,N-Dimethyl-3-[4-(trifluoromethyl)phenoxy]-3-(-22-thienyl)propanamine oxalate] | 190 nM | – | 15% | –
